In article PMC9323974, “Palladium(II) Complexes of Substituted Salicylaldehydes: Synthesis, Characterization and Investigation of Their Biological Profile” (Pharmaceuticals, 2022):

Assays:
HSA [1] = target: T1, HSA (Homo sapiens, UniProt P02768); experiment: HSA fluorescence quenching; format: binding; conditions: for ΔΙ/Ιο (%) HSA fluorescence quenching: HSA 3 μM; for K HSA-binding constant: Scatchard; for relative HSA-fluorescence emission intensity, % of the initial: final value
T1 construct: purchased Sigma-Aldrich Co
T1 sequence (P02768 25-609): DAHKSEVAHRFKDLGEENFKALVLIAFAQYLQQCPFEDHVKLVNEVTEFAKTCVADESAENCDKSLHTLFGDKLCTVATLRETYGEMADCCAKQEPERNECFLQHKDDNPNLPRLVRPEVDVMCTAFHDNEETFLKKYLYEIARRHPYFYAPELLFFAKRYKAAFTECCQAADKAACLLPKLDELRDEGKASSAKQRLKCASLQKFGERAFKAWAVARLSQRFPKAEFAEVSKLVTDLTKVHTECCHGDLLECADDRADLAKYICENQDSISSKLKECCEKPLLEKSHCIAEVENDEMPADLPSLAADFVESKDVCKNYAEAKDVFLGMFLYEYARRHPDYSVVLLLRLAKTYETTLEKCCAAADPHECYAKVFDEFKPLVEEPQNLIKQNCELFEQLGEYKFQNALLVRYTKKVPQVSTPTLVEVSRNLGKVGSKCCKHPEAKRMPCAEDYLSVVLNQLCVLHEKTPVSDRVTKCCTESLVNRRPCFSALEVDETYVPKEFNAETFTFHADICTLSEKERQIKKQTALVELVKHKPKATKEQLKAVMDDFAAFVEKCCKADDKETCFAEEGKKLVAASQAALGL
Procedure: S4 Interaction with serum albumins
S4.1 Study of the affinity for serum albumins
The albumin–binding study for the compounds was carried out by fluorescence emission quenching experiments using BSA (3 μM) or HSA (3 μM) in buffer solution (15 mM trisodium citrate and 150 mM NaCl at pH 7.0). The tested compounds were used as quenchers with gradually increasing concentrations to monitor the quenching of the emission intensity of tryptophan residues of BSA at 345 nm or HSA at 340 nm [S6]. The fluorescence emission spectra were recorded between 300–500 nm with excitation wavelength of 295 nm. All the experiments were conducted at room temperature. The fluorescence spectra of the compounds were recorded under the same experimental conditions and presented a low–intensity emission band in the region 395–415 nm.
Consequently, the SA fluorescence emission spectra were modified properly, by subtracting the spectra of the compounds, and quantitative studies followed.
The extent of the inner–filter effect can be roughly estimated with the following formula: […]
where Icorr= corrected intensity, Imeas= the measured intensity, c = the concentration of the quencher, d = the cuvette length (1 cm), ε(λexc) and ε(λem) = the ε of the quencher at the excitation and the emission wavelength, respectively, as calculated from the UV –vis spectra of the complexes [S 8].
The interaction of the quencher (i.e. compounds) with serum albumins [S6] was studied through the Stern–Volmer and Scatchard equations [S6] and corresponding graphs. The values of the respective Stern–Volmer constant KSV (M–1), the quenching constant k q (M–1s–1), the SA– binding constant K (M–1) and the number of binding sites per albumin (n) were calculated.
According to Stern–Volmer quenching equation [S6] (eq. S2), where I 0 = the initial tryptophan fluorescence intensity of SA, I = the tryptophan fluorescence intensity of SA after the addition of the quencher, kq = the quenching rate constants of SA, K SV = the dynamic quenching constant, τ0 = the average lifetime of SA without the quencher, [Q] = the concentration of the quencher), the Stern –Volmer constant (KSV, M–1) can be obtained by the slope of the diagram I0/I versus [Q]. Taking τ0 = 10–8 s as fluorescence lifetime of tryptophan in SA [S2], the quenching constant (kq, M–1s–1) is calculated from equation S3.
From the Scatchard equation (eq. S5) [S6]: […]
(1 picture or pasted object on this page, not shown here) […]
where n = the number of binding sites per albumin and K = the SA–binding constant. The K constant (M−1) is calculated from the slope in plots (ΔI/I0)/[Q] versus (ΔI/I0) and n is given by the ratio of y intercept to the slope [S9]. […]

EB-DNA adduct (CT DNA) = experiment: EB-displacement from EB-DNA (fluorescence); format: binding, calf; conditions: for ΔΙ/Ι0 (%) EB-DNA fluorescence quenching: [EB] = 20 μM, [DNA] = 26 μM; for EB-DNA relative fluorescence emission intensity, % of the initial: λemission = 592 nm, final value; for kq (EB-DNA quenching constant): τo = 23 ns
Procedure: page 8: […] spectroscopy, viscosity measurements and fluorescence emission spectroscopy studies. […] UV-vis spectroscopy was used for the evaluation of the interaction of the compounds with CT DNA, and specifically the possible binding modes of the compounds to CT DNA. Control experiments with DMSO were performed and no changes in the spectra of CT DNA were observed. In order to determine the binding mode, the UV-vis spectra of the compounds were […] concentrations of CT DNA for diverse r (r = [complex]/[DNA]) values. Effective use of the changes […] compounds were calculated by the Wolfe-[…] equation (eq. […] εf) versus [DNA]: (eq. S1) where [DNA] = the concentration of DNA in base pairs, ε f= the extinction coefficient for the free compound at the corresponding λmax, εA = Aobsd/[compound] and εb= the extinction coefficient for the compound in the fully bound form. K b is given by the ratio of slope to the y intercept in plots [DNA]/(εA-εf) versus [DNA]. S3.2 CT DNA-binding studies by viscosity measurements […] presence of increasing amounts of the compounds. The experiments were executed at room temperature and the measurements are devised in a plot (η/η 0)1/3 versus r, where η = the viscosity of DNA in the presence of the compound, and η0 = the viscosity of neat DNA in buffer solution. […] In order to determine and confirm the DNA-binding mode of the compounds, a competitive study with EB as an intercalating marker is performed by fluorescence emission spectroscopy. Therefore, the EB-displacing ability of the compounds from its EB-DNA conjugate was examined. […] solution (150 mM NaCl and 15 mM trisodium citrate at pH 7.0). The potential intercalation of the compounds between the DNA-bases was studied by the addition of a certain amount of the 8 (1 picture or pasted object on this page, not shown here) page 9: compound solution into the EB-DNA adduct solution. The influence of the compounds on the EB- DNA solution was monitored through the changes of the fluorescence emission spectra at excitation wavelength (λex) at 540 nm [S6]. […] Bearing that in mind, the observed quenching of the EB-DNA solution is evidently associated to the displacement of EB from its EB-DNA adduct. The quenching efficiency (KSV) for each compound was assessed according to the Stern - Volmer equation (eq. S2) [S6]: (eq. S2) where I0 and I = the fluorescence emission intensities of EB-DNA in the absence and presence of the quencher, respectively, [Q] = the concentration of the quencher (i.e. compounds). K SV is obtained from the Stern-Volmer plots by the slope of the diagram I0/I versus [Q]. Taking τ0 = 23 ns […] M-1s-1) of the compounds can be determined according to e quation S3: KSV = kqτo (eq. S3) 9 (1 picture or pasted object on this page, not shown here)

[2] = Reduction of hydrogen peroxide; conditions: compound 0.1 mM
Procedure: S1 Antioxidant biological assay
The antioxidant activity of the compounds was evaluated via their ability to scavenge in […]
vitro free radicals such as DPPH and ABTS and to reduce H2O2. […]
S1.3 Reduction of hydrogen peroxide
The ability of the compounds to reduce hydrogen peroxide (H2O2) was estimated according […]
to the method described in the literature [S2]. The reaction mixture contained 20 μL of each of the […]
tested compounds (0.1 mM) and 5 μL H 2O2 solution (40 mM) in phosphate buffer (50 mM, pH 7.4).
The absorbance was measured at 230 nm after 10 min. The antioxidant activity (reduction of […]

HSA [3] = target: T1, HSA; experiment: Competitive HSA-fluorescence studies with warfarin and ibuprofen; format: binding
[4] = read-out: HSA-binding constant K, Marker: Ibuprofen, ibuprofen
[5] = read-out: HSA-binding constant K, Marker: Warfarin, warfarin

Row | Compound | kq HSA-quenching constant (HSA [1]) | ΔΙ/Ιο (%) HSA fluorescence quenching (HSA [1]) [%] | K HSA-binding constant (HSA [1]) | relative HSA-fluorescence emission intensity, % of the initial (HSA [1]) [%] | KSV (Stern–Volmer constant), EB-DNA (EB-DNA adduct (CT DNA)) | ΔΙ/Ι0 (%) EB-DNA fluorescence quenching (EB-DNA adduct (CT DNA)) [%] | EB-DNA relative fluorescence emission intensity, % of the initial (EB-DNA adduct (CT DNA)) [%] | kq (EB-DNA quenching constant) (EB-DNA adduct (CT DNA)) | H2O2% [2] [%] | HSA-binding constant K, Marker: Ibuprofen (HSA [3]; ibuprofen) | HSA-binding constant K, No Marker (HSA [3]) | HSA-binding constant K, Marker: Warfarin (HSA [3]; warfarin) | Kd (HSA [1]) [µM] | Kd (HSA [3]) [µM] | Kd (HSA [3]; [4]) [µM] | Kd (HSA [3]; [5]) [µM] | HSA drug site preference (HSA [3]; drug site I (warfarin) vs II (ibuprofen))
1 | CCN(CC)c1ccc(C=O)c([O][Pd][O]c2cc(N(CC)CC)ccc2C=O)c1 [Complex 1, [Pd(4-Et2N-salo)2]] | 3.48 (±0.14) × 10^13 M^−1 s^−1 | 91.8 | 1.25 (±0.06) × 10^5 M^−1 | 8.2 | 1.03 (±0.02) × 10^5 M^−1 | 51.2 | 48.8 | 4.49 (±0.09) × 10^12 M^−1s^−1 | 18.19 ± 0.29 | 1.86 (±0.12) × 10^5 M^−1 | 1.25 (±0.06) × 10^5 M^−1 | 6.89 (±0.28) × 10^4 M^−1 | – | – | – | – | –
2 | O=Cc1cc(Cl)cc(Cl)c1[O-].O=Cc1cc(Cl)cc(Cl)c1[O-].[Pd+2] [Complex 3, [Pd(3,5-diCl-salo)2]] | 5.00 (±0.12) × 10^13 M^−1 s^−1 | 90.4 | 4.10 (±0.17) × 10^5 M^−1 | 9.6 | 7.53 (±0.18) × 10^4 M^−1 | 60.6 | 39.4 | 3.27 (±0.08) × 10^12 M^−1s^−1 | 51.26 ± 0.70 | 3.78 (±0.14) × 10^5 M^−1 | 4.10 (±0.17) × 10^5 M^−1 | 2.47 (±0.09) × 10^5 M^−1 | – | – | – | – | –
3 | COc1ccc(C=O)c(O)c1 [4-OMe-saloH, 4-methoxy-salicylaldehyde, reference compound] | 2.28 (±0.13) × 10^12 M^−1 s^−1 | – | – | – | – | – | – | – | 94.24 ± 0.67 | – | – | – | 10.3 | 10.3 | 21.3 | 60.2 | –
4 | COc1ccc(C=O)c([O-])c1.COc1ccc(C=O)c([O-])c1.[Pd+2] [Complex 5, [Pd(4-OMe-salo)2]] | 6.69 (±0.23) × 10^13 M^−1 s^−1 | 92.2 | 3.56 (±0.12) × 10^5 M^−1 | 7.8 | 4.26 (±0.08) × 10^4 M^−1 | 44.2 | 55.8 | 1.85 (±0.04) × 10^12 M^−1s^−1 | 58.38 ± 0.54 | 1.45 (±0.17) × 10^4 M^−1 | 3.56 (±0.12) × 10^5 M^−1 | 1.00 (±0.18) × 10^5 M^−1 | – | – | – | – | did not seem to show firmly a selectivity
5 | CCN(CC)c1ccc(C=O)c(O)c1 [4-Et2N-saloH, 4-diethylamino-salicylaldehyde, reference compound] | 2.10 (±0.22) × 10^13 M^−1 s^−1 | – | – | – | 2.89 (±0.07) × 10^4 M^−1 | 43.4 | – | 1.25 (±0.03) × 10^12 M^−1s^−1 | 76.57 ± 0.71 | – | – | – | 2.48 | 2.48 | 23.8 | 4.39 | –
